Test results: ChEMBL document CHEMBL4387741, “Optimization of novel reversible Bruton's tyrosine kinase inhibitors identified using Tethering-fragment-based screens” (Bioorg Med Chem, 2019)

Columns and labels:
[1] = system: Tyrosine-protein kinase ABL1 (Homo sapiens), P00519 [M351T]; assay: Inhibition of human phosphorylated ABL1 M351T mutant (S229 to K512 residues) expressed in mammalian expression system at 1 uM by Kinomescan method relative to control
[2] = biological target: Ribosomal protein S6 kinase alpha-2 (Homo sapiens) (UniProt Q15349); assay: Inhibition of wild-type human partial length N-terminal RSK3 kinase domain 1 (M1 to Q385 residues) expressed in bacterial expression system at 1 uM by Kinomescan method relative to control
[3] = Protein binding in human plasma assessed as unbound fraction at 2 uM by rapid equilibrium dialysis method; assay type: ADME, cell-free
[4] = biological target: Serine/threonine-protein kinase WNK2 (Homo sapiens) (UniProt Q9Y3S1); assay: Inhibition of wild-type human partial length WNK2 (V47 to D482 residues) expressed in mammalian expression system at 1 uM by Kinomescan method relative to control
[5] = biological target: Mitogen-activated protein kinase 10 (Homo sapiens) (UniProt P53779); assay: Inhibition of wild-type human partial length JNK3 (V28 to Q422 residues) expressed in mammalian expression system at 1 uM by Kinomescan method relative to control
[6] = biological target: Serine/threonine-protein kinase PknB (Mycobacterium tuberculosis) (UniProt P9WI81); assay: Inhibition of wild-type Mycobacterium tuberculosis partial length PKNB (M1 to G279 residues) expressed in mammalian expression system at 1 uM by Kinomescan method relative to control
[7] = biological target: Phosphatidylinositol 4,5-bisphosphate 3-kinase catalytic subunit alpha isoform (Homo sapiens) (UniProt P42336); assay: Inhibition of wild-type human partial length PIK3CA (R108 to N1068 residues) expressed in mammalian expression system at 1 uM by Kinomescan method relative to control
[8] = biological target: Platelet-derived growth factor receptor beta (Homo sapiens) (UniProt P09619); assay: Inhibition of wild-type human partial length PDGFRB (V582 to Y1009 residues) expressed in bacterial expression system at 1 uM by Kinomescan method relative to control
[9] = biological target: Mitogen-activated protein kinase 8 (Homo sapiens) (UniProt P45983); assay: Inhibition of wild-type human full length JNK1 (M1 to Q384 residues) expressed in mammalian expression system at 1 uM by Kinomescan method relative to control
Mitogen-activated protein kinase 8 (Homo sapiens), sequence (P45983 whole entry, the tested form may be a part): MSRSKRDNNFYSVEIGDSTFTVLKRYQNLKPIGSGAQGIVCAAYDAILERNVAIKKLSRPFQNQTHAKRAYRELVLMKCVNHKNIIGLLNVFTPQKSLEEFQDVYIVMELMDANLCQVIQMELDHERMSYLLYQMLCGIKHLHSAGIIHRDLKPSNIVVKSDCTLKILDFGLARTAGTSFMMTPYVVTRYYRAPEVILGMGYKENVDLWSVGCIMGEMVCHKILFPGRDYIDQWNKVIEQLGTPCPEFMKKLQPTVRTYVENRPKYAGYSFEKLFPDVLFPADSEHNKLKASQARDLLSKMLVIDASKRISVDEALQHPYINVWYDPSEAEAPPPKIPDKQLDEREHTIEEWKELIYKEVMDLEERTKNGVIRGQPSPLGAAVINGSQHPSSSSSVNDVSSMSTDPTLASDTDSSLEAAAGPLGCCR

[10] = biological target: Mitogen-activated protein kinase kinase kinase 1 (Homo sapiens) (UniProt Q13233); assay: Inhibition of wild-type human partial length MAP3K1 (L1202 to W1512 residues) expressed in mammalian expression system at 1 uM by Kinomescan method relative to control
[11] = biological target: 1-phosphatidylinositol 3-phosphate 5-kinase (Homo sapiens) (UniProt Q9Y2I7); assay: Inhibition of wild-type human partial length PIKFYVE (F1512 to C2098 residues) expressed in mammalian expression system at 1 uM by Kinomescan method relative to control
1-phosphatidylinositol 3-phosphate 5-kinase (Homo sapiens), sequence (Q9Y2I7 whole entry, the tested form may be a part): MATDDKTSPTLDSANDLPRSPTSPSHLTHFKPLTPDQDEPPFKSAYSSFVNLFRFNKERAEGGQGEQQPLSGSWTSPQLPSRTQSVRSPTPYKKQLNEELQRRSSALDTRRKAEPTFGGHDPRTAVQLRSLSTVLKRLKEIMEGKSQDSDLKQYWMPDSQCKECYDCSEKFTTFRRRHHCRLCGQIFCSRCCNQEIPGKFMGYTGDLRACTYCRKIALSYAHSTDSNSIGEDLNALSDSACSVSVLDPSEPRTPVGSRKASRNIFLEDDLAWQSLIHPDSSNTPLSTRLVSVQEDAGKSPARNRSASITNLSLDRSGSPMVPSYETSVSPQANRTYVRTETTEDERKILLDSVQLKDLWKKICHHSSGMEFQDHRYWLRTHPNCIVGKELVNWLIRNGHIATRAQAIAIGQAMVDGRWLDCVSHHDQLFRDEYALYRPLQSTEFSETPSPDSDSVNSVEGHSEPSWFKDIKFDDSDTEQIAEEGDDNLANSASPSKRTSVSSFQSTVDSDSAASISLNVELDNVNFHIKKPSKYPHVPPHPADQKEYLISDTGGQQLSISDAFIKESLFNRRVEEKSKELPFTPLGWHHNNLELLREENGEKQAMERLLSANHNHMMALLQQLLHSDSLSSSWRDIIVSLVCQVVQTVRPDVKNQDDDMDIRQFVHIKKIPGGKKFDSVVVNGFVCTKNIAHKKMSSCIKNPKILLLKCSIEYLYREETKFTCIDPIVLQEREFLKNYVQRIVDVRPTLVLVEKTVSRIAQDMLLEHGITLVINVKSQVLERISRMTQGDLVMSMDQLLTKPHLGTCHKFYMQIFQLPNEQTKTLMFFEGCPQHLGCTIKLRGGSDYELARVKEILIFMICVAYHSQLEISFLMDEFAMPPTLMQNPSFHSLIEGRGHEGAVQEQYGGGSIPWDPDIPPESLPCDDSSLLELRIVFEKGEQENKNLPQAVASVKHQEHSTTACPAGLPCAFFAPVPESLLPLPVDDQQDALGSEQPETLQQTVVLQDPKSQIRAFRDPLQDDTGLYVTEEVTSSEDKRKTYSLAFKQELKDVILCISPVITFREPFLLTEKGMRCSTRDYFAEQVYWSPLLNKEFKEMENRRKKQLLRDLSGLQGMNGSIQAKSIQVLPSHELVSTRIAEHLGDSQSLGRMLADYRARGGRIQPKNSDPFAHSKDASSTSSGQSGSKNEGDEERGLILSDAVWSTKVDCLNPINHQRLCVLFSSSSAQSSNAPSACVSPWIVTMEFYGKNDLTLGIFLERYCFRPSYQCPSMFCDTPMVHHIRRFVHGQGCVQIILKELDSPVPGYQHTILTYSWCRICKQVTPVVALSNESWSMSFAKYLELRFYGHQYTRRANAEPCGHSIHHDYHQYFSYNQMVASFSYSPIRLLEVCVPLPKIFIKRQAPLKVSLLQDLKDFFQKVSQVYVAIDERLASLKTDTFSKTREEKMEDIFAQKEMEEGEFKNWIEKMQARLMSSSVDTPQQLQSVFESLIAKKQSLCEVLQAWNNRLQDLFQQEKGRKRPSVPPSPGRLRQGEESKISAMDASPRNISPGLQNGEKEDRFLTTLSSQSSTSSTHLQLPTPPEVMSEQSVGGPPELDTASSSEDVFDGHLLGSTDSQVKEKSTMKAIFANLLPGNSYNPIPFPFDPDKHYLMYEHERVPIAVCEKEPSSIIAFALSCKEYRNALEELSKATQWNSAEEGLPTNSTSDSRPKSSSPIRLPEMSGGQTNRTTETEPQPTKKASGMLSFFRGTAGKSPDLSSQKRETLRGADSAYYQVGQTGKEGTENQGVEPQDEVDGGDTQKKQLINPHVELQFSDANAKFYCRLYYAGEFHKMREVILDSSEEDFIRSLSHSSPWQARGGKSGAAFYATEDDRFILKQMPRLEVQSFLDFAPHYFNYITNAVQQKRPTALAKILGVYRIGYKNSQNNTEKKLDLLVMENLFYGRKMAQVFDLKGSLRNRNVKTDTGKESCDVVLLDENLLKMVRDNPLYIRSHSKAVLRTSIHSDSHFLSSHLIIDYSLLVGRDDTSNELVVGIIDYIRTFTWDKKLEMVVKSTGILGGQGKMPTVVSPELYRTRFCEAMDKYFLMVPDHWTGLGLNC

[12] = biological target: Calcium/calmodulin-dependent protein kinase type 1G (Homo sapiens) (UniProt Q96NX5); assay: Inhibition of wild-type human partial length CAMK1G (M1 to A342 residues) expressed in bacterial expression system at 1 uM by Kinomescan method relative to control
Calcium/calmodulin-dependent protein kinase type 1G (Homo sapiens), sequence (Q96NX5 whole entry, the tested form may be a part): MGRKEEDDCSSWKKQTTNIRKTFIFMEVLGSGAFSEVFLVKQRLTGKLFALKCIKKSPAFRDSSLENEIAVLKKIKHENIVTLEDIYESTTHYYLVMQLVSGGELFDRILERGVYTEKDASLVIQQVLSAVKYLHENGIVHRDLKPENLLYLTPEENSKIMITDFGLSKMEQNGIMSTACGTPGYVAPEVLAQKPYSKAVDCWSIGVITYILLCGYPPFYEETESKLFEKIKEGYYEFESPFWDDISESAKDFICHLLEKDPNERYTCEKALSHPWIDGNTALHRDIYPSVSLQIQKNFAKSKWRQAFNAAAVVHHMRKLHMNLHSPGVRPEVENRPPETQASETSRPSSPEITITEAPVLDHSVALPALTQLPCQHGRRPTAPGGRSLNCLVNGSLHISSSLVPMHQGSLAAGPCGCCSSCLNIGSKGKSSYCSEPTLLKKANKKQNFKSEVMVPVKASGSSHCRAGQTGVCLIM

[13] = biological target: Mitogen-activated protein kinase kinase kinase 12 (Homo sapiens) (UniProt Q12852); assay: Inhibition of wild-type human full length DLK (M1 to P859 residues) expressed in mammalian expression system at 10 uM by Kinomescan method relative to control
[14] = biological target: Serine/threonine-protein kinase NIM1 (Homo sapiens) (UniProt Q8IY84); assay: Inhibition of wild-type human partial length NIM1 (Q44 to N355 residues) expressed in mammalian expression system at 10 uM by Kinomescan method relative to control
Serine/threonine-protein kinase NIM1 (Homo sapiens), sequence (Q8IY84 whole entry, the tested form may be a part): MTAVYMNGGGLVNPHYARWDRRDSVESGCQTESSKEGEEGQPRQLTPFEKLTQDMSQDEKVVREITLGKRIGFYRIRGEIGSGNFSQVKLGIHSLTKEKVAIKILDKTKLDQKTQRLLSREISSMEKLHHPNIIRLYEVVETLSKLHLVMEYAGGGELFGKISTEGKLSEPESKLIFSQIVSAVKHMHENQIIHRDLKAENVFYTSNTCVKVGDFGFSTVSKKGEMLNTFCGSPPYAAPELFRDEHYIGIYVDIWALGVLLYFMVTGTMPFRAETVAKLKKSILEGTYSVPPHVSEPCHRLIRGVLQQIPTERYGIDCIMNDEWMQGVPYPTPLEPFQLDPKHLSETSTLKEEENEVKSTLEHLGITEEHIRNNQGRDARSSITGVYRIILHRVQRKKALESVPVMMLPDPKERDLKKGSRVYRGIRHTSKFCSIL

[15] = biological target: Mast/stem cell growth factor receptor Kit (Homo sapiens) (UniProt P10721); assay: Inhibition of wild-type human partial length autoinhibited KIT (Y545 to D952 residues) expressed in mammalian expression system at 10 uM by Kinomescan method relative to control
Mast/stem cell growth factor receptor Kit (Homo sapiens), sequence (P10721 whole entry, the tested form may be a part): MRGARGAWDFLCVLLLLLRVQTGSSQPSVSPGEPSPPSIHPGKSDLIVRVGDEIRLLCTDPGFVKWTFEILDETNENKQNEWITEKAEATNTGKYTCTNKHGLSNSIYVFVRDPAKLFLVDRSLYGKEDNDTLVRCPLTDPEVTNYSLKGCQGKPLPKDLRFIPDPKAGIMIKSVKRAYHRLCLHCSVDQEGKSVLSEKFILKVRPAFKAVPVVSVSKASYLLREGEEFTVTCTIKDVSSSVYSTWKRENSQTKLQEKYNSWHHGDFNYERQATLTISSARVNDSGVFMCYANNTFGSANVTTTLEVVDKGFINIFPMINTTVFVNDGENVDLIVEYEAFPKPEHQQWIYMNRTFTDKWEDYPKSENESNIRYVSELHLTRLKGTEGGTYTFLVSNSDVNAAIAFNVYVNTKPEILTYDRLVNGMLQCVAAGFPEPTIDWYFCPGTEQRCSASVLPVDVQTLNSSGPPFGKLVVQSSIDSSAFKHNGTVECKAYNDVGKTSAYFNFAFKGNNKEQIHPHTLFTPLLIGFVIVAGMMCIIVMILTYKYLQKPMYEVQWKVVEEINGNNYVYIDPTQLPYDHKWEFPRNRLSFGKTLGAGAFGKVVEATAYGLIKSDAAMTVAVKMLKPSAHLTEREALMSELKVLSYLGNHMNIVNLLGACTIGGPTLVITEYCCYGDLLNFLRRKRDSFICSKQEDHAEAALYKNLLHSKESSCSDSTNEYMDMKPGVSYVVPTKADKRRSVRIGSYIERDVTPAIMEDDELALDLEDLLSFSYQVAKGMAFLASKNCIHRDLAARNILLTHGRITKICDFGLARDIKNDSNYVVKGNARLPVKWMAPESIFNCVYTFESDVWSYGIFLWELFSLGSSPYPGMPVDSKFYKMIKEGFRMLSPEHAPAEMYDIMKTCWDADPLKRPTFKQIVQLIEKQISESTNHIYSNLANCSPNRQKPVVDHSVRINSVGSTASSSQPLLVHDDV

[16] = biological target: Ribosomal protein S6 kinase alpha-6 (Homo sapiens) (UniProt Q9UK32); assay: Inhibition of wild-type human partial length C-terminal RSK4 kinase domain 2 (I401 to Y711 residues) expressed in bacterial expression system at 10 uM by Kinomescan method relative to control
[17] = biological target: Serine/threonine-protein kinase DCLK3 (Homo sapiens) (UniProt Q9C098); assay: Inhibition of wild-type human partial length DCAMKL3 (E140 to V628 residues) expressed in bacterial expression system at 10 uM by Kinomescan method relative to control
Serine/threonine-protein kinase DCLK3 (Homo sapiens), sequence (Q9C098 whole entry, the tested form may be a part): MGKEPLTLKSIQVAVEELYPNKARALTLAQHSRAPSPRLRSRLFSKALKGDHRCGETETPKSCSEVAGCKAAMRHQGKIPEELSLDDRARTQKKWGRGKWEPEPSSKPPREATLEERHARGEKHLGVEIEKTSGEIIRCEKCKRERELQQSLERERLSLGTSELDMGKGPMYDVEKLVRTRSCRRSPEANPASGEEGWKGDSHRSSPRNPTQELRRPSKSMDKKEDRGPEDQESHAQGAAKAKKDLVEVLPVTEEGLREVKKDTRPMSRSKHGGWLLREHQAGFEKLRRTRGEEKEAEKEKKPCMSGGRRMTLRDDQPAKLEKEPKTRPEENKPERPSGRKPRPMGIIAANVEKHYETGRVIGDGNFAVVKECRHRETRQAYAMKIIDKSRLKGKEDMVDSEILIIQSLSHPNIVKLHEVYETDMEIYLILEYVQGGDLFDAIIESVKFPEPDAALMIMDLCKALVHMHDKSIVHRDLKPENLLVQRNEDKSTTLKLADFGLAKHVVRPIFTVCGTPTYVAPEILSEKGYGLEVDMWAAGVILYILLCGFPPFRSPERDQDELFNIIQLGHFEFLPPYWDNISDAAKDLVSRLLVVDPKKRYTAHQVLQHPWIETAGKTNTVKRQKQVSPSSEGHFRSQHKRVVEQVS

[18] = system: Receptor-type tyrosine-protein kinase FLT3 (Homo sapiens), P36888 [K663Q]; assay: Inhibition of human partial length FLT3 K663Q mutant (V592 to Y969 residues) expressed in bacterial expression system at 10 uM by Kinomescan method relative to control
[19] = biological target: Cyclin-G-associated kinase (Homo sapiens) (UniProt O14976); assay: Inhibition of wild-type human partial length GAK (G13 to Y338 residues) expressed in bacterial expression system at 10 uM by Kinomescan method relative to control
[20] = biological target: Cyclin-dependent kinase 9 (Homo sapiens) (UniProt P50750); assay: Inhibition of wild-type human full length CDK9 (M1 to F372 residues) expressed in bacterial expression system at 10 uM by Kinomescan method relative to control
[21] = biological target: Protein kinase C theta type (Homo sapiens) (UniProt Q04759); assay: Inhibition of wild-type human partial length PRKCQ (L350 to S706 residues) expressed in bacterial expression system at 10 uM by Kinomescan method relative to control
[22] = biological target: Tyrosine-protein kinase receptor Tie-1 (Homo sapiens) (UniProt P35590); assay: Inhibition of wild-type human partial length TIE1 (T819 to A1138 residues) expressed in bacterial expression system at 10 uM by Kinomescan method relative to control
[23] = biological target: Dual specificity mitogen-activated protein kinase kinase 4 (Homo sapiens) (UniProt P45985); assay: Inhibition of wild-type human partial length MEK4 (S84 to D399 residues) expressed in mammalian expression system at 10 uM by Kinomescan method relative to control
[24] = biological target: Atypical kinase COQ8B, mitochondrial (Homo sapiens) (UniProt Q96D53); assay: Inhibition of wild-type human full length ADCK4 (M1 to S544 residues) expressed in bacterial expression system at 10 uM by Kinomescan method relative to control
[25] = biological target: Phosphatidylinositol 4,5-bisphosphate 3-kinase catalytic subunit delta isoform (Homo sapiens) (UniProt O00329); assay: Inhibition of wild-type human partial length PIK3CD (R108 to Q1044 residues) expressed in mammalian expression system at 10 uM by Kinomescan method relative to control
[26] = biological target: Ephrin type-A receptor 2 (Homo sapiens) (UniProt P29317); assay: Inhibition of wild-type human partial length EPHA2 (T593 to V891 residues) expressed in bacterial expression system at 10 uM by Kinomescan method relative to control
[27] = biological target: Macrophage colony-stimulating factor 1 receptor (Homo sapiens) (UniProt P07333); assay: Inhibition of wild-type human partial length CSF1R (I564 to S939 residues) expressed in bacterial expression system at 10 uM by Kinomescan method relative to control

O=C(Nc1cccc([C@@H]2CN(c3ncnc4[nH]ccc34)CCN2CCO)c1)Nc1c(F)cccc1N1CCCC1
inhibition [1]: 90% | inhibition [2]: 88% | Fu [3]: 1% | inhibition [4]: 99% | inhibition [5]: 97% | inhibition [6]: 80% | inhibition [7]: 100% | inhibition [8]: 42% | inhibition [9]: 70% | inhibition [10]: 70% | inhibition [11]: 91% | inhibition [12]: 100%

O=C(Nc1cccc([C@H]2CCCN(c3ncnc4[nH]ccc34)C2)c1)Nc1ccccc1N1CCCC1
inhibition [13]: 69% | inhibition [14]: 75% | inhibition [15]: 71% | inhibition [16]: 50% | inhibition [17]: 100% | inhibition [18]: 8.1% | inhibition [19]: 24% | inhibition [20]: 100% | inhibition [21]: 100% | inhibition [22]: 45% | inhibition [23]: 1.6% | inhibition [24]: 100% | inhibition [25]: 99% | inhibition [26]: 50% | inhibition [27]: 20%
